The target in this experiment is T1, wildtype HIV-1 protease (Human immunodeficiency virus type 1 group M subtype B, UniProt P04585).
T1 construct: preincubated with the HIV-1 protease (wild type) enzyme in assay buffer; made in house; host or cells: Escherichia coli
The experiment can be described thus: Assay for inhibition of microbial expressed HIV protease (Pepcleav). It counts as biochemical. To be noted: wild type HIV-1 protease 20 pM, peptide substrate 400 micromolar, pH 5.5; mean of at least two independent experiments. The protocol:
Assay for Inhibition of Microbial Expressed HIV Protease (“Pepcleav”)
Studies of the inhibition of the wildtype HIV-1 protease (which was expressed in Escherichia coli) were carried out with a peptide substrate [Val-Ser-Gln-Asn-(βnaphtyl)Ala-Pro-Ile-Val (SEQ ID NO 1)]. The inhibitor was first preincubated with the HIV-1 protease (wild type) enzyme in assay buffer (50 mM sodium acetate, pH 5.5, 100 mM NaCl, and 0.1% BSA) for 30 minutes at room temperature. Substrate was added to 400 micromolar in a total volume of 20 microliters containing 20 picomolar HIV-1 protease (final) and the reaction is incubated for 1 hour at 30° C. The reaction was quenched with the addition of formic acid and indinavir to 0.012% and 150 nM final concentrations, respectively. Product formation was determined after separation of product and substrate on a Zorbax Eclipse XDB-C18 column connected to an API 4000 mass spectrometer (Applied Biosystems) with multiple reaction monitoring (transitions were 644.5/428.9 and 615.4/422.2 (M1/M3) for product and indinavir respectively). The extent of inhibition of the reaction was determined from the peak area of the products.
As to `COC(=O)N[C@H](C(=O)Nc1cc(F)ccc1CC[C@@H]1CNC[C@@H](COc2ccc(C#N)cc2)O1)C(c1ccccc1)c1ccccc1` [Example 72, N-[2-(2-{(2R,6S)-6-[(4-cyanophenoxy)methyl]morpholin-2-yl}ethyl)-5-fluorophenyl]-Nα-(methoxycarbonyl)-β-phenyl-L-phenylalaninamide], the IC50 was 23 nM. The result for `COC(=O)N[C@H](C(=O)Nc1ccccc1CC[C@@H]1CNC[C@@H](COc2ccc(Cc3ccccc3)cc2)O1)C(c1ccccc1)c1ccccc1` [Example 12, methyl N-[(1S)-1-benzhydryl-2-[[2-[2-[(2R,6S)-6-[(4-benzylphenoxy)methyl]morpholin-2-yl]ethyl]phenyl]amino]-2-oxo-ethyl]carbamate] reads 24 nM; that for `COC(=O)N[C@H](C(=O)Nc1cccc(F)c1CC[C@@H]1CNC[C@@H](COc2ccc(C#N)cc2)O1)C(c1ccccc1)c1ccccc1` [Example 71, N-[2-(2-{(2R,6S)-6-[(4-cyanophenoxy)methyl]morpholin-2-yl}ethyl)-3-fluorophenyl]-Nα-(methoxycarbonyl)-β-phenyl-L-phenylalaninamide], 7.4 nM. Consider `COC(=O)N[C@H](C(=O)Nc1ccccc1CC[C@@H]1CNC[C@@H](CSc2nnc(-c3ccncc3)o2)O1)C(c1ccccc1)c1ccccc1` [Example 34, methyl N-[(1S)-1-benzhydryl-2-oxo-2-[[2-[2-[(2R,6S)-6-[[5-(4-pyridyl)-1,3,4-oxadiazol-2-yl]sulfanylmethyl]morpholin-2-yl]ethyl]phenyl]amino]ethyl] carbamate], for which the IC50 is 0.42 nM. In the case of `COC(=O)N[C@@H](C(=O)Nc1ccccc1CC[C@@H]1CNC[C@@H](CSc2ccc(Cl)cc2)O1)[C@H](c1ccccc1)c1ccncc1` [Example 70, (βR)-N-(2-{2-[(2R,6S)-6-{[(4-chlorophenyl)sulfanyl]methyl}morpholin-2-yl]ethyl}phenyl)-Nα-(methoxycarbonyl)-β-pyridin-4-yl-D-phenylalaninamide] it was 0.74 nM; in that of `COC(=O)N[C@H](C(=O)Nc1cc(F)cnc1CC[C@@H]1CNC[C@@H](COc2ccc(C#N)cc2)O1)C(c1ccccc1)c1ccccc1` [Example 78, N-[2-(2-{(2R,6S)-6-[(4-cyanophenoxy)methyl]morpholin-2-yl}ethyl)-5-fluoropyridin-3-yl]-Nα-(methoxycarbonyl)-β-phenyl-L-phenylalaninamide], 150 nM.

With `COC(=O)N[C@H](C(=O)Nc1ccccc1C[C@H]1CNC[C@@H](COc2ccc(C#N)cc2)O1)C(c1ccccc1)c1ccccc1` [Example 117, N-[2-({(2S,6S)-6-[(4-cyanophenoxy)methyl]morpholin-2-yl}methyl)phenyl]-Nα-(methoxycarbonyl)-β-phenyl-L-phenylalaninamide], the midpoint of inhibition, the IC50, lay at 180 nM.

For the molecule `N[C@H](C(=O)Nc1cncc(F)c1CC[C@@H]1CNCC2(CCCCC2)O1)C(c1ccccc1)c1ccccc1` [Example 133, N-(5-fluoro-4-{2-[(2R)-1-oxa-4-azaspiro[5.5]undec-2-yl]ethyl}pyridin-3-yl)-β-phenyl-L-phenylalaninamide], inhibition was half-maximal at 290 nM (IC50). In the case of `COC(=O)N[C@H](C(=O)NCCCC1CNC[C@@H](CSc2ccc(Cl)cc2)O1)C(c1ccccc1)c1ccccc1` (stereo partly drawn) [Example 2, methyl N-[(1S)-1-benzhydryl-2-[3-[(6S)-6-[(4-chlorophenyl)sulfanylmethyl]morpholin-2-yl]propylamino]-2-oxo-ethyl]carbamate], the IC50 was found to be 300 nM. The result for `COC(=O)N[C@H](C(=O)Nc1ccccc1CC[C@@H]1CNC[C@@H](CSc2ccc(Cl)c(Cl)c2)O1)C(c1ccccc1)c1ccccc1` [Example 19, methyl N-[(1S)-1-benzhydryl-2-[[2-[2-[(2R,6S)-6-[(3,4-dichlorophenyl)sulfanylmethyl]morpholin-2-yl]ethyl]phenyl]amino]-2-oxo-ethyl]carbamate] reads 8.7 nM; that for `COC(=O)N[C@H](C(=O)Nc1ccccc1CC[C@@H]1CNC[C@@H](COc2ccc(-c3ccncc3)cc2)O1)C(c1ccccc1)c1ccccc1` [Example 52, N-α-(methoxycarbonyl)-β-phenyl-N-(2-{2-[(2R,6S)-6-{[4-(pyridin-4-yl)phenoxy]methyl}morpholin-2-yl]ethyl}phenyl)-L-phenylalaninamide], 4 nM.

On to `COC(=O)N[C@H](C(=O)Nc1ccc(F)cc1CC[C@@H]1CNC[C@@H](COc2ccc(C#N)cc2)O1)C(c1ccccc1)c1ccccc1` [Example 75, N-[2-(2-{(2R,6S)-6-[(4-cyanophenoxy)methyl]morpholin-2-yl}ethyl)-4-fluorophenyl]-Nα-(methoxycarbonyl)-β-phenyl-L-phenylalaninamide], for which the IC50 came to 46 nM. `COC(=O)N[C@H](C(=O)Nc1ccccc1CC[C@@H]1CNC[C@@H](CSc2ccc(Cl)cc2Cl)O1)C(c1ccccc1)c1ccccc1` [Example 25, methyl N-[(1S)-1-benzhydryl-2-[[2-[2-[(2R,6S)-6-[(2,4-dichlorophenyl)sulfanylmethyl]morpholin-2-yl]ethyl]phenyl]amino]-2-oxo-ethyl]carbamate] had an IC50 of 1.5 nM. `COC(=O)N[C@H](C(=O)NCCCC1CNC[C@@H](CCc2ccc(Cl)cc2)O1)C(c1ccccc1)c1ccccc1` (stereo partly drawn) [Example 107, N-(3-{(6R)-6-[2-(4-chlorophenyl)ethyl]morpholin-2-yl}propyl)-Nα-(methoxycarbonyl)-β-phenyl-L-phenylalaninamide] returned an IC50 of 1000 nM. `COC(=O)N[C@H](C(=O)Nc1ccc(F)cc1CC[C@@H]1CNC[C@@H](COc2cccc(C#N)c2)O1)C(c1ccccc1)c1ccccc1` [Example 74, N-[2-(2-{(2R,6S)-6-[(3-cyanophenoxy)methyl]morpholin-2-yl}ethyl)-4-fluorophenyl]-Nα-(methoxycarbonyl)-β-phenyl-L-phenylalaninamide] registered an IC50 of 39 nM. The result for `COC(=O)N[C@H](C(=O)Nc1ccccc1CC[C@@H]1CNC[C@@H](COc2cccc3ncccc23)O1)C(c1ccccc1)c1ccccc1` [Example 51, methyl [(2S)-1-oxo-3,3-diphenyl-1-{[2-[2-{(2R,6S)-6-[(quinolin-5-yloxy)methyl]morpholin-2-yl}ethyl)phenyl]amino}propan-2-yl]carbamate] reads 14 nM.

On to `N[C@H](C(=O)Nc1cncc(F)c1CC[C@@H]1CNC[C@@H](CO)O1)C(c1ccc(F)cc1)c1ccc(F)cc1` [Example 120, 4-fluoro-N-(5-fluoro-4-{2-[(2R,6S)-6-(hydroxymethyl)morpholin-2-yl]ethyl}pyridin-3-yl)-β-(4-fluorophenyl)-L-phenylalaninamide], for which the IC50 stood at 380 nM. In the case of `COC(=O)N[C@H](C(=O)Nc1ccccc1CC[C@@H]1CNC[C@@H](CSc2cccc3ncccc23)O1)C(c1ccccc1)c1ccccc1` [Example 42, methyl [(2S)-1-oxo-3,3-diphenyl-1-{[2-(2-{(2R,6S)-6-[(quinolin-5-ylsulfanyl)methyl]morpholin-2-yl}ethyl)phenyl]amino}propan-2-yl]carbamate] it was 0.94 nM.

Take `COC(=O)N[C@H](C(=O)Nc1ccccc1CC[C@@H]1CNC[C@@H](CSc2ncnc3[nH]ncc23)O1)C(c1ccccc1)c1ccccc1` [Example 35, methyl N-[(1S)-1-benzhydryl-2-oxo-2-[[2-[2-[(2R,6S)-6-(1H-pyrazolo[3,4-d]pyrimidin-4-ylsulfanylmethyl)morpholin-2-yl]ethyl]phenyl]amino]ethyl] carbamate]: the IC50 was determined as 2.1 nM. Against the preceding molecule, the IC50 is about 2.2-fold higher. In the case of `COC(=O)N[C@H](C(=O)NCCCCC1CNC[C@@H](CS(=O)(=O)c2ccc(N)cc2)O1)C(c1ccccc1)c1ccccc1` (stereo partly drawn) [Example 1, Methyl N-[(1S)-1-[4-[(6S)-6-[(4-aminophenyl)sulfonylmethyl]morpholin-2-yl]butylcarbamoyl]-2,2-diphenyl-ethyl]carbamate] it was 450 nM. Take `COC(=O)N[C@H](C(=O)Nc1cccc(F)c1CC[C@@H]1CNC[C@@H](CSc2ccc(Cl)cc2)O1)C(c1ccccc1)c1ccccc1` [Example 73, N-(2-{2-[(2R,6S)-6-{[(4-chlorophenyl)sulfanyl]methyl}morpholin-2-yl]ethyl}-3-fluorophenyl)-Nα-(methoxycarbonyl)-β-phenyl-L-phenylalaninamide]: 0.89 nM corresponded to half-maximal inhibition (IC50). The molecule `COC(=O)N[C@H](C(=O)Nc1ccccc1CC[C@@H]1CNC[C@@H](CSc2ccc(Br)cc2F)O1)C(c1ccccc1)c1ccccc1` [Example 27, methyl N-[(1S)-1-benzhydryl-2-[[2-[2-[(2R,6S)-6-[(4-bromo-2-fluoro-phenyl)sulfanylmethyl]morpholin-2-yl]ethyl]phenyl]amino]-2-oxo-ethyl]carbamate] gave an IC50 of 0.53 nM.

`COC(=O)N[C@H](C(=O)Nc1ccccc1CC[C@@H]1CNC[C@@H](COc2ccc3c(c2)NCCC3)O1)C(c1ccccc1)c1ccccc1` [Example 53, methyl [(2S)-1-oxo-3,3-diphenyl-1-{[2-(2-{(2R,6S)-6-[(1,2,3,4-tetrahydroquinolin-7-yloxy)methyl]morpholin-2-yl}ethyl)phenyl]amino}propan-2-yl]carbamate] had an IC50 of 13 nM. In the case of `COC(=O)N[C@H](C(=O)Nc1c(CC[C@@H]2CNC[C@@H](CSc3ccc(Cl)cc3)O2)cc[nH]c1=O)C(c1ccccc1)c1ccccc1` [Example 87, N-(4-{2-[(2R,6S)-6-{[(4-chlorophenyl)sulfanyl]methyl}morpholin-2-yl]ethyl}-2-oxo-1,2-dihydropyridin-3-yl)-Nα-(methoxycarbonyl)-β-phenyl-L-phenylalaninamide] it was 0.05 nM.

The record behind these values is US9994587B2, “HIV protease inhibitors” (priority 2014, dated 2018).
